# Results: PubChem BioAssay AID1919005 (Molecular Pharmacology Branch, DTP, NCI, 2023)
# Tested on: 855422-203-R-J1-PDC complex spheroid growth
# Assay: Anticancer human tumor 855422-203-R-J1-PDC patient-derived bladder carcinoma cell line growth inhibition [AhR]
# Conditions: for IC50: curve of first compound; for viability, T/C: stronger effect = lower value
# Description: Multicellular complex tumor spheroid response to aryl hydrocarbon receptor antagonists in combination with a variety of drugs and investigational agents in selected tumor cell lines
# The current study was undertaken to assess response to aryl hydrocarbon receptor antagonists in combination with standard-of-care drugs and investigational agents in solid tumor complex spheroid models. Complex spheroids include a stromal component modeled by human endothelial cells (HUVEC) and fibroblasts modeled by human mesenchymal stem cells (MSCs). The concentration ranges selected for each drug and investigational agent were based upon clinically achievable concentrations if the clinical Cmax of the agent was known.
# Compounds. The drugs and investigational agents: BAY 2416964 (NSC825713), GNF351 (NSC835774), CH-223191 (NSC835775), CPI-455 (NSC825282), aza-TdCyd (NSC777586), decitabine (NSC127716), belinostat (NSC758774), entinostat (NSC756642), pevonedistat (NSC761192), tazemetostat (NSC777109), talazoparib (NSC765396), olaparib (NSC753686), selinexor (NSC780203), nedisertib (M3814, NSC802822), bortezomib (NSC756655), venetoclax (NSC766270), doxorubicin (NSC123127), elimusertib (BAY189344, NSC800525), ceralasertib (AZD6738, NSC777638), TAK-243 (NSC785004), alisertib (NSC759677), etoposide (NSC141540), topotecan (NSC609699), eribulin (NSC707389), gemcitabine (NSC613327), carboplatin (NSC241240), cisplatin (NSC119875), and SN-38 (NSC673596) were obtained from the National Cancer Institute (NCI) Developmental Therapeutics Program Chemical Repository (32). The FDA-approved anticancer drug set is available from the Developmental Therapeutics Program at https://dtp.cancer.gov/organization/dscb/obtaining/available plates.htm. […] The stock solutions were prepared in dimethyl sulfoxide (DMSO, Sigma-Aldrich, St. Louis, MO, cat. D2650), except for the platinum compounds which were prepared in saline (Quality Biological, Gaithersburg, MD, cat. 114-055-101), at 800-fold the tested concentration and stored at -70 degrees C prior to their use. All drugs and investigational agents were tested over a range starting from a high concentration at or near the clinical Cmax and decreasing in half-log increments. If the clinical Cmax for an agent had not been determined, the highest concentration tested was 10 microM (Table 1).
# Cell Culture. All cells were maintained in an incubator at 37 degrees C and 5% CO2 with 95% humidity. The PDC lines were cultured according to standard operating procedures established by the NCI PDMR (https://pdmr.cancer.gov). Briefly, all PDCs were thawed and cultured in Matrigel-coated flasks prepared with a working solution of 1X Ham's F-12 nutrient mix, without supplementation (Invitrogen, Waltham, MA, cat. 11765054), 100 U/mL penicillin-streptomycin (Invitrogen, cat. 15140122), and 2.5% Matrigel (Corning Inc., Corning, NY, cat. 354248) for the first three passages. All PDCs were cultured in complete DMEM/F-12 media containing advanced DMEM/F-12 (Invitrogen, cat. 12634028), 4.9% defined fetal bovine serum, heat inactivated (HyClone Laboratories Inc., Logan, UT, cat. SH30070.03HI), 389 ng/mL hydrocortisone (Sigma-Aldrich, cat. H4001), 9.7 ng/mL human EGF recombinant protein (Invitrogen, cat. PHG0313), 23.4 microg/mL adenine (Sigma-Aldrich, cat. A2786), 97.3 U/mL penicillin-streptomycin (Invitrogen, cat. 15140122), 1.9 mM L-glutamine (Invitrogen, cat. 25030081), and 9.7 microM Y-27632 dihydrochloride (Tocris Bioscience, Bristol, United Kingdom, cat. 1254). The PDCs were cultured in complete DMEM/F12 media without 10 microM Y-27632 dihydrochloride for at least two passages prior to the screen. The established cell lines NCI-H1341 and […] were cultured in DMEM/F-12, HEPES (Invitrogen, cat. 11330032), 5% defined fetal bovine serum (HyClone Laboratories Inc., cat. SH30070.03), ITS premix universal culture supplement [insulin (5 microg/mL), transferrin (5 microg/mL), and selenious acid (5 ng/mL)] […]
# [1] = second compound 0.1 µM, first compound 0.0316 µM
# [2] = second compound 0.1 µM, first compound 0.1 µM
# [3] = second compound 0.1 µM, first compound 0.316 µM
# [4] = second compound 0.1 µM, first compound 1 µM
# [5] = second compound 0.1 µM, first compound 3.16 µM
# [6] = second compound 0.1 µM, first compound 10 µM
# [7] = second compound 0.316 µM, first compound 0.0316 µM
# [8] = second compound 0.316 µM, first compound 0.1 µM
# [9] = second compound 0.316 µM, first compound 0.316 µM
# [10] = second compound 0.316 µM, first compound 1 µM
# [11] = second compound 0.316 µM, first compound 3.16 µM
# [12] = second compound 0.316 µM, first compound 10 µM
# [13] = second compound 1 µM, first compound 0.0316 µM
# [14] = second compound 1 µM, first compound 0.1 µM
# [15] = second compound 1 µM, first compound 0.316 µM
# [16] = second compound 1 µM, first compound 1 µM
# [17] = second compound 1 µM, first compound 3.16 µM
# [18] = second compound 1 µM, first compound 10 µM
# [19] = second compound 3.16 µM, first compound 0.0316 µM
# [20] = second compound 3.16 µM, first compound 0.1 µM
# [21] = second compound 3.16 µM, first compound 0.316 µM
# [22] = second compound 3.16 µM, first compound 1 µM
# [23] = second compound 3.16 µM, first compound 3.16 µM
# [24] = second compound 3.16 µM, first compound 10 µM
# [25] = second compound 10 µM, first compound 0.0316 µM
# [26] = second compound 10 µM, first compound 0.1 µM
# [27] = second compound 10 µM, first compound 0.316 µM
# [28] = second compound 10 µM, first compound 1 µM
# [29] = second compound 10 µM, first compound 3.16 µM
# [30] = second compound 10 µM, first compound 10 µM
# 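Further: spheroids exposed to agents for seven days before readout.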
# 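Wherever viability, T/C is given: percent of DMSO vehicle control luminescence viability.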
smiles,measurement,setting,value
CCc1c2c(nc3ccc(O)cc13)-c1cc3c(c(=O)n1C2)COC(=O)[C@]3(O)CC + CC(CO)NC(=O)c1cc(-c2ccc(Cl)cc2)nn(-c2cnn(C)c2)c1=O,IC50,second compound 0.1 µM,5.26 nM
same,IC50,second compound 0.316 µM,4.51 nM
same,IC50,second compound 1 µM,3.42 nM
same,IC50,second compound 3.16 µM,1.92 nM
same,IC50,second compound 10 µM,1.48 nM
same,"viability, T/C","second compound 0.1 µM, first compound 0.000949 µM",95.5%
same,"viability, T/C","second compound 0.1 µM, first compound 0.003 µM",78.9%
same,"viability, T/C","second compound 0.1 µM, first compound 0.00949 µM",19.4%
same,"viability, T/C","second compound 0.1 µM, first compound 0.03 µM",13.2%
same,"viability, T/C","second compound 0.1 µM, first compound 0.0949 µM",9.5%
same,"viability, T/C","second compound 0.1 µM, first compound 0.3 µM",6.28%
same,"viability, T/C","second compound 0.316 µM, first compound 0.000949 µM",85.6%
same,"viability, T/C","second compound 0.316 µM, first compound 0.003 µM",68.7%
same,"viability, T/C","second compound 0.316 µM, first compound 0.00949 µM",15.6%
same,"viability, T/C","second compound 0.316 µM, first compound 0.03 µM",12.3%
same,"viability, T/C","second compound 0.316 µM, first compound 0.0949 µM",6.86%
same,"viability, T/C","second compound 0.316 µM, first compound 0.3 µM",4.21%
same,"viability, T/C","second compound 1 µM, first compound 0.000949 µM",86.5%
same,"viability, T/C","second compound 1 µM, first compound 0.003 µM",54.7%
same,"viability, T/C","second compound 1 µM, first compound 0.00949 µM",13.9%
same,"viability, T/C","second compound 1 µM, first compound 0.03 µM",11%
same,"viability, T/C","second compound 1 µM, first compound 0.0949 µM",6.82%
same,"viability, T/C","second compound 1 µM, first compound 0.3 µM",4.24%
same,"viability, T/C","second compound 3.16 µM, first compound 0.000949 µM",72.2%
same,"viability, T/C","second compound 3.16 µM, first compound 0.003 µM",36.3%
same,"viability, T/C","second compound 3.16 µM, first compound 0.00949 µM",12.8%
same,"viability, T/C","second compound 3.16 µM, first compound 0.03 µM",10.2%
same,"viability, T/C","second compound 3.16 µM, first compound 0.0949 µM",6.61%
same,"viability, T/C","second compound 3.16 µM, first compound 0.3 µM",4.22%
same,"viability, T/C","second compound 10 µM, first compound 0.000949 µM",65.5%
same,"viability, T/C","second compound 10 µM, first compound 0.003 µM",25.4%
same,"viability, T/C","second compound 10 µM, first compound 0.00949 µM",12.6%
same,"viability, T/C","second compound 10 µM, first compound 0.03 µM",9.84%
same,"viability, T/C","second compound 10 µM, first compound 0.0949 µM",6.11%
same,"viability, T/C","second compound 10 µM, first compound 0.3 µM",4.31%
Nc1ccn(C2OC(CO)C(O)C2(F)F)c(=O)n1 (stereo not given) + CC(CO)NC(=O)c1cc(-c2ccc(Cl)cc2)nn(-c2cnn(C)c2)c1=O,IC50,second compound 0.1 µM,232 nM
same,IC50,second compound 0.316 µM,166 nM
same,IC50,second compound 1 µM,175 nM
same,IC50,second compound 3.16 µM,99.5 nM
same,IC50,second compound 10 µM,132 nM
same,"viability, T/C",[1],99.4%
same,"viability, T/C",[2],79.7%
same,"viability, T/C",[3],38.5%
same,"viability, T/C",[4],18.7%
same,"viability, T/C",[5],14.4%
same,"viability, T/C",[6],10.5%
same,"viability, T/C",[7],88.4%
same,"viability, T/C",[8],71.2%
same,"viability, T/C",[9],22.9%
same,"viability, T/C",[10],15.9%
same,"viability, T/C",[11],13.2%
same,"viability, T/C",[12],8.62%
same,"viability, T/C",[13],97.8%
same,"viability, T/C",[14],74.3%
same,"viability, T/C",[15],23.9%
same,"viability, T/C",[16],17.8%
same,"viability, T/C",[17],14.4%
same,"viability, T/C",[18],8.17%
same,"viability, T/C",[19],89.9%
same,"viability, T/C",[20],50.2%
same,"viability, T/C",[21],22.2%
same,"viability, T/C",[22],16.1%
same,"viability, T/C",[23],11.3%
same,"viability, T/C",[24],9.74%
same,"viability, T/C",[25],81.3%
same,"viability, T/C",[26],59.6%
same,"viability, T/C",[27],19.9%
same,"viability, T/C",[28],14.6%
same,"viability, T/C",[29],14.5%
same,"viability, T/C",[30],8.36%
O=C(c1cc(Cc2n[nH]c(=O)c3ccccc23)ccc1F)N1CCN(C(=O)C2CC2)CC1 + CC(CO)NC(=O)c1cc(-c2ccc(Cl)cc2)nn(-c2cnn(C)c2)c1=O,IC50,second compound 0.1 µM,> 10000 nM
same,IC50,second compound 0.316 µM,> 10000 nM
same,IC50,second compound 1 µM,> 10000 nM
same,IC50,second compound 3.16 µM,> 10000 nM
same,IC50,second compound 10 µM,> 10000 nM
same,"viability, T/C",[1],105%
same,"viability, T/C",[2],107%
same,"viability, T/C",[3],117%
same,"viability, T/C",[4],110%
same,"viability, T/C",[5],98.8%
same,"viability, T/C",[6],95.2%
same,"viability, T/C",[7],118%
same,"viability, T/C",[8],107%
same,"viability, T/C",[9],110%
same,"viability, T/C",[10],106%
same,"viability, T/C",[11],105%
same,"viability, T/C",[12],97.9%
same,"viability, T/C",[13],120%
same,"viability, T/C",[14],115%
same,"viability, T/C",[15],115%
same,"viability, T/C",[16],108%
same,"viability, T/C",[17],113%
same,"viability, T/C",[18],101%
same,"viability, T/C",[19],107%
same,"viability, T/C",[20],112%
same,"viability, T/C",[21],105%
same,"viability, T/C",[22],105%
same,"viability, T/C",[23],96.9%
same,"viability, T/C",[24],106%
same,"viability, T/C",[25],109%
same,"viability, T/C",[26],115%
same,"viability, T/C",[27],98%
same,"viability, T/C",[28],97.1%
same,"viability, T/C",[29],105%
same,"viability, T/C",[30],102%
